Laboratory results: patent US11629155B2, “Small molecule antagonist compound TAC5 series having toll-like receptor 3/7/8/9 inhibitory function” (AJOU UNIVERSITY INDUSTRY-ACADEMIC COOPERATION FOUNDATION, priority 2018, dated 2023)

How the values were obtained:
RAW 264.7 cells = test: MTT assay, cytotoxicity in RAW 264.7 cells; conditions: FIG. 4B
Experimental: RAW264.7 cells (ATCC, Manassas, Va., USA), which are mouse macrophages, were cultured in low-glucose DMEM (Thermo Fisher Scientific Inc.) supplemented with 10% FBS, 100 IU/ml penicillin and 100 μg/ml streptomycin in a culture system.
Cytotoxicity in RAW 264.7 cells was tested by treatment with these compounds at a concentration of 12.5 to 50 μM.

TLR7/8 = test: TLR7/8-mediated IL-6 expression in THP-1 cells; assay type: cell-based, human; conditions: FIG. 4C
Experimental: RAW264.7 cells (ATCC, Manassas, Va., USA), which are mouse macrophages, were cultured in low-glucose DMEM (Thermo Fisher Scientific Inc.) supplemented with 10% FBS, 100 IU/ml penicillin and 100 μg/ml streptomycin in a culture system. Human monocyte THP1 cells were cultured in RPMI 1640 (Thermo Fisher Scientific Inc.) supplemented with 10% FBS, 100 IU/ml penicillin and 100 μg/ml streptomycin and then differentiation thereof into macrophages was induced using 10 nM phorbol 12-myristate 13-acetate (PMA) (Sigma-Aldrich Co. LLC.) for 24 hours. CL075, R848, CpG-ODN and Poly(I:C) were purchased from InvivoGen (San Diego, Calif., USA), and LPS was purchased from Sigma-Aldrich Co. (St. Louis, Mo., USA).
Cytotoxicity in RAW 264.7 cells was tested by treatment with these compounds at a concentration of 12.5 to 50 μM. […] The inhibitory effect of TAC5-a on TLR-mediated signaling was confirmed by measuring TNF-α secretion through ELISA in THP1-derived macrophages. […] In addition, in order to evaluate the antagonistic effect of TAC5-a on endosomal TLR activation, cells were cultured along with this compound in the presence of R848 (TLR7/8) or CL075 (TLR7/8), imiquimod (IMQ; TLR7), TL8 (TLR8), poly(I:C) (TLR3) or CpG ODN (TLR9) (FIGS. 4E, 4F and 4G).

[1] = test system: C57BL/6 mice, IMQ-induced psoriasis; test: IMQ-induced psoriasis mouse model; assay type: in vivo; conditions: FIG. 5F
Experimental: The therapeutic efficacy of TAC5-a was evaluated in a psoriasis mouse model and a SLE mouse model. Psoriasis was induced in 6-7 week old C57BL/6 mice by topically applying 42 mg of IMQ cream (5%) to the shaved back skin of the mice for 6 consecutive days (FIG. 5A). TAC5-a was injected daily at doses of 50, 100 and 200 nmol/g and the effect thereof on severity was analyzed.
Histological analysis and immunochemical staining were performed on skin samples of mouse dorsal lesions. The sample was fixed with 4% paraformaldehyde solution, then embedded in paraffin and cut to 7 μm on a glass slide. The sections were stained with hematoxylin and eosin (H&E) and the thickness of the dermis and epidermis were measured. The thickness of skin was measured with a Leica DMi8 fluorescence microscope using a Leica LAS X Hardware Configurator (Leica Microsystems GmbH, Wetzlar, Germany). IMQ-mediated skin inflammation was evaluated by immunohistochemistry (IHC) using a primary antibody that recognizes CD68 (ab31630, 1:200 dilution) as a macrophage marker. […] The skin was stained with hematoxylin and eosin (H&E) in order to evaluate the thickness of the epidermis (yellow arrow) and dermis (green arrow) in IMQ-induced psoriasis mice and thereby to observe the histopathological changes of skin lesions in each group (FIG. 5G) Immunohistochemical analysis of skin lesions in each group was performed using a primary antibody that recognizes CD68.

c1ccc(COc2cccnc2Nc2ccccc2)cc1 [TAC5-c, 3-(benzyloxy)-N-phenylpyridin-2-amine]
cytotoxicity at 50 μM (RAW 264.7 cells): slight cytotoxicity | TLR7/8-mediated IL-6 expression (TLR7/8): inhibited

CN(Cc1cnc2nc(N)nc(N)c2n1)c1ccc(C(=O)N[C@@H](CCC(=O)O)C(=O)O)cc1 [MTX, methotrexate, reference compound]
thickness of the epidermis and the dermis (H&E) [1]: therapeutic effects similar to those of the treatment group were observed

CCOCC(Oc1cccnc1N)c1ccccc1 (centres unmarked) [TAC5-d, 3-(2-ethoxy-1-phenylethoxy)pyridine-2-amine]
TLR7/8-mediated IL-6 expression (TLR7/8): inhibited

NCCOCC(Oc1cccnc1N)c1ccccc1 (centres unmarked) [TAC5-e, 3-(2-(2-aminoethoxy)-1-phenylethoxy)pyridine-2-amine]
TLR7/8-mediated IL-6 expression (TLR7/8): inhibited
